Data taken from paper PMC7180830, “Scaffold Hopping in Discovery of HIV-1 Non-Nucleoside Reverse Transcriptase Inhibitors: From CH(CN)-DABOs to CH(CN)-DAPYs” (Molecules, 2020).

Columns and labels:
[1] = tested on: HIV-1 F227L + V106A mutant strain; assay: Anti-HIV assay against double mutant F227L + V106A in MT-4 cells; assay type: cell-based; details: Human immunodeficiency virus 1, MT4, read-out: EC50 F227L + V106A
Description: (§2) Evaluation of the antiviral activity of the compounds against HIV in MT-4 cells was performed using the MTT assay as previously described [24, 25]. […] Prior to use in our assays, every freshly grown virus stock was the subject of a genotypic analysis. In addition to the genotypic analysis, every stock was subject to a phenotypic analysis using a panel of relevant reference compounds in MT-4 cells. […] Stock solutions (10× final concentration) of test compounds were added in 25 μL volumes to two series of triplicate wells so as to allow simultaneous evaluation of their effects on mock- and HIV-infected cells at the beginning of each experiment. Serial 5-fold dilutions of test compounds were made directly in flat-bottomed 96-well microtiter trays using a Biomek 3000 robot (Beckman instruments, Fullerton, CA). Untreated HIV- and mock-infected cell samples were included as controls. HIV stock (50 μL) at 100–300 CCID50 (50% cell culture infectious doses) and culture medium (final 200 μL volume per well) were added to either the infected or mock-infected wells of the microtiter tray. Mock-infected cells were used to evaluate the effects of test compounds on uninfected cells in order to assess the cytotoxicity of the test compounds. Exponentially growing MT-4 cells were centrifuged for 5 min at 220× g and the supernatant was discarded. The MT-4 cells were resuspended at 6 × 10^5 cells/mL and 50 μL volumes were transferred to the microtiter tray wells. Five days after infection, the viability of mock- and HIV-infected cells was examined spectrophotometrically using the MTT assay. The MTT assay is based on the reduction of yellow colored 3-(4,5-dimethylthiazol-2-yl)-2,5-diphenyltetrazolium bromide (MTT) (Acros Organics, Geel, Belgium) by mitochondrial dehydrogenase activity in metabolically active cells to a blue-purple formazan that can be measured spectrophotometrically. The absorbances were read in an eight-channel computer-controlled photometer (Infinite M1000, Tecan, Männedorf, Switzerland) at two wavelengths (540 and 690 nm). All data were calculated using the median absorbance value of three wells.

[2] = tested on: HIV-1 E138K mutant strain; assay: Anti-HIV assay against E138K mutant strain in MT-4 cells; assay type: cell-based; details: Human immunodeficiency virus 1, MT4, read-out: EC50 E138K
Description: as §2

[3] = tested on: HIV-1 L100I mutant strain; assay: Anti-HIV assay against L100I mutant strain in MT-4 cells; assay type: cell-based; details: Human immunodeficiency virus 1, MT4, read-out: EC50 L100I
Description: as §2

[4] = tested on: HIV-1 IIIB; assay: Anti-HIV assay against wild-type HIV-1 (IIIB) in MT-4 cells, MTT method; assay type: cell-based; details: for SI (selectivity index, ratio CC50/EC50 (WT)): CC50/EC50 WT HIV-1 IIIB, MT-4 cells; for EC50: Human immunodeficiency virus 1, IIIB, MT4, read-out: EC50 HIV-1 IIIB
Description: (§1) Untreated HIV- and mock-infected cell samples were included as controls. […] Five days after infection, the viability of mock- and HIV-infected cells was examined spectrophotometrically using the MTT assay. […] All data were calculated using the median absorbance value of three wells.

[5] = tested on: HIV-1 K103N mutant strain; assay: Anti-HIV assay against K103N mutant strain in MT-4 cells; assay type: cell-based; details: Human immunodeficiency virus 1, MT4, read-out: EC50 K103N
Description: as §2

[6] = tested on: HIV-1 K103N + Y181C mutant strain; assay: Anti-HIV assay against double mutant K103N + Y181C in MT-4 cells; assay type: cell-based; details: Human immunodeficiency virus 1, MT4, read-out: EC50 K103N + Y181C
Description: as §2

[7] = tested on: HIV-1 Y181C mutant strain; assay: Anti-HIV assay against Y181C mutant strain in MT-4 cells; assay type: cell-based; details: Human immunodeficiency virus 1, MT4, read-out: EC50 Y181C
Description: as §2

[8] = tested on: MT-4 cells; assay: Cytotoxicity in mock-infected MT-4 cells, MTT method; details: MT-4 cells; relative to RPV CC50
Description: as §1

[9] = as above; details: human, mock-infected (uninfected) MT-4 cells
Description: as §1

[10] = molecular target: T1, WT HIV-1 RT (Human immunodeficiency virus type 1 group M subtype B, UniProt P03366); assay: Reverse transcriptase assay (EnzCheck kit, PicoGreen); assay type: biochemical; details: recombinant wild type p66/p51 HIV-1 RT
T1 construct: Recombinant wild type p66/p51 HIV-1 RT; made in house
Description: The RT assay was performed with the EnzCheck Reverse Transcriptase Assay kit (Molecular Probes, Invitrogen), as described by the Manufacturer. The assay is based on the dsDNA quantitation reagent PicoGreen. […] This condition is met in the assay. A poly(rA) template of approximately 350 bases long and an oligo (dT)16 primer are annealed in a molar ratio of 1:1.2 (60 min at room temperature). Then, 52 ng of the RNA/DNA is brought into each well of a 96-well plate in a volume of 20 μL polymerization buffer (60 mM Tris-HCl, 60 mM KCl, 8 mM MgCl2, 13 mM DTT, 100 μM dTTP, pH 8.1). Then, 5 μL of RT enzyme solution, diluted to a suitable concentration in enzyme dilution buffer (50 mM Tris-HCl, 20% glycerol, 2 mM DTT, pH 7.6), is added. The reactions are incubated at 25 °C for 40 min and then stopped by the addition of EDTA (15 mM fc). Heteroduplexes are then detected by addition of PicoGreen. Signals are read using an excitation wavelength of 490 nm and emission detection at 523 nm using a spectrofluorometer (Safire 2, Tecan). To test the activity of compounds against RT, 1 μL of compound in DMSO was added to each well before the addition of RT enzyme solution. Control wells without compound contained the same amount of DMSO. Results are expressed as relative fluorescence, i.e., the fluorescence signal of the reaction mix with compound divided by the signal of the same reaction mix without compound.

Row | Structure (SMILES) | EC50 [1] [nM] | EC50 [2] [nM] | EC50 [3] [nM] | SI (selectivity index, ratio CC50/EC50 (WT)) [4] | EC50 [4] [nM] | fold higher activity than the 3-substituted analogue (A4) ([4]; WT HIV-1 IIIB, relative to A4) [fold] | EC50 [5] [nM] | EC50 [6] [nM] | EC50 [7] [nM] | CC50 fold higher than that of RPV [8] | CC50 at 5 days [9] [nM] | melting point [°C] | IC50 [10] [nM]
1 | COc1cc(C#N)ccc1C(C#N)c1ccnc(Nc2ccc(C#N)cc2)n1 (stereo not shown) [Compound A5, 4-(4-(cyano-(2-methoxy-4-cyanophenyl)methyl)-pyrimidin-2-ylamino)benzonitrile] | ≥ 12400 | 1630 ± 320 | 4720 ± 790 | 434 | 59 ± 11 | 200 | 680 ± 160 | > 25800 | 1250 ± 580 | about 5 fold | 25800 ± 8700 | 189.4 to 190.1 | –
2 | Cc1cnc(Nc2ccc(C#N)cc2)nc1C(C#N)c1ccc(C#N)cc1Cl (stereo not shown) [Compound B3, 4-(4-(cyano-(2-chloro-4-cyanophenyl)methyl)-5-methylpyrimidin-2-ylamino)benzonitrile] | 4040 ± 700 | 140 ± 30 | 820 ± 150 | 920 | 10 ± 10 | – | 80 ± 20 | > 9560 | 260 ± 20 | – | 9600 ± 2700 | 213.6 to 214.2 | 50 ± 30
3 | Cc1cnc(Nc2ccc(C#N)cc2)nc1C(C#N)c1ccc(C#N)c(Cl)c1C (stereo not shown) [Compound B5, 4-(4-(cyano-(2-methyl-3-chloro-4-cyanophenyl)methyl)-5-methylpyrimidin-2-ylamino)benzonitrile] | 1660 ± 270 | 600 ± 100 | 1820 ± 400 | 370 | 20 ± 8 | – | 390 ± 70 | > 8580 | 1020 ± 200 | – | 8600 ± 2200 | 205.4 to 206.5 | 70 ± 20
